Results taken from PubChem BioAssay AID1259407 (Chemical Carcinogenesis Research Information System (CCRIS), 2018).
Activity calls are given as the source filed them. No rule for the calls is given here.

Test system: CCRIS mutagenicity, Ames/micronucleus/aberration tests
Assay: CCRIS mutagenicity studies
[1] = Test System: AMES SALMONELLA TYPHIMURIUM, Strain/Indicator: TA98, Metabolic Activation: NONE, Method: STANDARD PLATE
[2] = Test System: AMES SALMONELLA TYPHIMURIUM, Strain/Indicator: TA100, Metabolic Activation: NONE, Method: STANDARD PLATE
[3] = Test System: AMES SALMONELLA TYPHIMURIUM, Strain/Indicator: TA98, Metabolic Activation: HAMSTER, LIVER, S-9, AROCLOR 1254 (10%), Method: PREINCUBATION
[4] = Test System: AMES SALMONELLA TYPHIMURIUM, Strain/Indicator: TA98, Metabolic Activation: NONE, Method: PREINCUBATION
[5] = Test System: AMES SALMONELLA TYPHIMURIUM, Strain/Indicator: TA98, Metabolic Activation: RAT, LIVER, S-9, AROCLOR 1254 (10%), Method: PREINCUBATION
[6] = Test System: AMES SALMONELLA TYPHIMURIUM, Strain/Indicator: TA100, Metabolic Activation: HAMSTER, LIVER, S-9, AROCLOR 1254 (10%), Method: PREINCUBATION
[7] = Test System: AMES SALMONELLA TYPHIMURIUM, Strain/Indicator: TA100, Metabolic Activation: NONE, Method: PREINCUBATION
[8] = Test System: AMES SALMONELLA TYPHIMURIUM, Strain/Indicator: TA100, Metabolic Activation: RAT, LIVER, S-9, AROCLOR 1254 (10%), Method: PREINCUBATION
[9] = Test System: AMES SALMONELLA TYPHIMURIUM, Strain/Indicator: TA1535, Metabolic Activation: HAMSTER, LIVER, S-9, AROCLOR 1254 (10%), Method: PREINCUBATION
[10] = Test System: AMES SALMONELLA TYPHIMURIUM, Strain/Indicator: TA1535, Metabolic Activation: NONE, Method: PREINCUBATION
[11] = Test System: AMES SALMONELLA TYPHIMURIUM, Strain/Indicator: TA1535, Metabolic Activation: RAT, LIVER, S-9, AROCLOR 1254 (10%), Method: PREINCUBATION
[12] = Test System: AMES SALMONELLA TYPHIMURIUM, Strain/Indicator: TA1537, Metabolic Activation: HAMSTER, LIVER, S-9, AROCLOR 1254 (10%), Method: PREINCUBATION
[13] = Test System: AMES SALMONELLA TYPHIMURIUM, Strain/Indicator: TA1537, Metabolic Activation: NONE, Method: PREINCUBATION
[14] = Test System: AMES SALMONELLA TYPHIMURIUM, Strain/Indicator: TA1537, Metabolic Activation: RAT, LIVER, S-9, AROCLOR 1254 (10%), Method: PREINCUBATION
[15] = Test System: AMES SALMONELLA TYPHIMURIUM, Strain/Indicator: TA1535, Metabolic Activation: NONE

Structure (SMILES): C=Cc1ccncc1
- mutagenic call [1]: inactive; negative
- mutagenic call (Test System: AMES SALMONELLA TYPHIMURIUM, Strain/Indicator: TA98, Metabolic Activation: RAT, LIVER, S-9, AROCLOR 1254, Method: STANDARD PLATE): inactive; negative
- mutagenic call [2]: inactive; negative
- mutagenic call (Test System: AMES SALMONELLA TYPHIMURIUM, Strain/Indicator: TA100, Metabolic Activation: RAT, LIVER, S-9, AROCLOR 1254, Method: STANDARD PLATE): inactive; negative
- mutagenic call (Test System: AMES SALMONELLA TYPHIMURIUM, Strain/Indicator: TA1535, Metabolic Activation: NONE, Method: STANDARD PLATE): inactive; negative
- mutagenic call (Test System: AMES SALMONELLA TYPHIMURIUM, Strain/Indicator: TA1535, Metabolic Activation: RAT, LIVER, S-9, AROCLOR 1254, Method: STANDARD PLATE): inactive; negative
- mutagenic call (Test System: AMES SALMONELLA TYPHIMURIUM, Strain/Indicator: TA1538, Metabolic Activation: NONE, Method: STANDARD PLATE): inactive; negative
- mutagenic call (Test System: AMES SALMONELLA TYPHIMURIUM, Strain/Indicator: TA1538, Metabolic Activation: RAT, LIVER, S-9, AROCLOR 1254, Method: STANDARD PLATE): inactive; negative
- mutagenic call (Test System: UDS RAT HEPATOCYTES, Strain/Indicator: THY INCORP, Metabolic Activation: NONE): inactive; negative

Structure (SMILES): CC(C)CC(=O)CC(C)C
- mutagenic call [3]: inactive; negative
- mutagenic call [4]: inactive; negative
- mutagenic call [5]: inactive; negative
- mutagenic call [6]: inactive; negative
- mutagenic call [7]: inactive; negative
- mutagenic call [8]: inactive; negative
- mutagenic call [9]: inactive; negative
- mutagenic call (Test System: AMES SALMONELLA TYPHIMURIUM, Strain/Indicator: TA1535, Metabolic Activation: HAMSTER, LIVER, S-9, AROCLOR 1254 (50%), Method: PREINCUBATION): inactive; negative
- mutagenic call [10]: inactive; negative
- mutagenic call [11]: inactive; negative
- mutagenic call (Test System: AMES SALMONELLA TYPHIMURIUM, Strain/Indicator: TA1535, Metabolic Activation: RAT, LIVER, S-9, AROCLOR 1254 (50%), Method: PREINCUBATION): inactive; negative
- mutagenic call [12]: inactive; negative
- mutagenic call (Test System: AMES SALMONELLA TYPHIMURIUM, Strain/Indicator: TA1537, Metabolic Activation: HAMSTER, LIVER, S-9, AROCLOR 1254 (50%), Method: PREINCUBATION): inactive; negative
- mutagenic call [13]: inactive; negative
- mutagenic call [14]: inactive; negative
- mutagenic call (Test System: AMES SALMONELLA TYPHIMURIUM, Strain/Indicator: TA1537, Metabolic Activation: RAT, LIVER, S-9, AROCLOR 1254 (50%), Method: PREINCUBATION): inactive; negative

Structure (SMILES): COc1ccc2c(c1)C(=O)c1nccc3cc(OC)c(OC)c-2c13
- mutagenic call (Test System: AMES SALMONELLA TYPHIMURIUM, Strain/Indicator: TA100, Metabolic Activation: RAT, LIVER, S-9, PHENOBARBITAL AND BETA-NAPHTHOFLAVONE, Method: PREINCUBATION): active; positive

Structure (SMILES): C#CCOS(=O)(=O)c1ccc(C)cc1
- mutagenic call [2]: inactive; negative
- mutagenic call (Test System: AMES SALMONELLA TYPHIMURIUM, Strain/Indicator: TA100, Metabolic Activation: RAT, LIVER, S-9, Method: STANDARD PLATE): active; positive

Structure (SMILES): CC(=O)OC1Cc2ccc3ccc4cccc5cc1c2c3c45 (configuration not stated)
- mutagenic call [1]: active; positive
- mutagenic call [2]: active; positive

Structure (SMILES): COc1cc(O)c2c(=O)c(-c3ccc(O)cc3)coc2c1
- mutagenic call (Test System: SYRIAN HAMSTER EMBRYO CELLS, Strain/Indicator: HPRT/6-THIOGUANINE, Metabolic Activation: NONE, Method: PLATE): inactive; negative

Structure (SMILES): Oc1ccc2ccccc2c1N=Nc1ccc(N=Nc2ccccc2)cc1
- mutagenic call [1]: inactive; negative
- mutagenic call [2]: inactive; negative

Structure (SMILES): CC[C@H](C)[C@@H]1NC(=O)[C@H](CCCNC(=N)N)NC(=O)[C@H](CC(=O)O)NC(=O)[C@H](CCSC)NC(=O)[C@H](CCCNC(=N)N)NC(=O)CNC(=O)CNC(=O)[C@H](Cc2ccccc2)NC(=O)[C@@H](NC(=O)[C@H](CO)NC(=O)[C@H](CO)NC(=O)[C@H](CCCNC(=N)N)NC(=O)[C@H](CCCNC(=N)N)NC(=O)[C@H](CC(C)C)NC(=O)[C@@H](N)CO)CSSC[C@@H](C(=O)N[C@@H](CC(N)=O)C(=O)N[C@@H](CO)C(=O)N[C@@H](Cc2ccccc2)C(=O)N[C@@H](CCCNC(=N)N)C(=O)N[C@@H](Cc2ccc(O)cc2)C(=O)O)NC(=O)CNC(=O)[C@H](CC(C)C)NC(=O)CNC(=O)[C@H](CO)NC(=O)[C@H](CCC(N)=O)NC(=O)[C@H](C)NC(=O)CNC1=O
- mutagenic call [4]: inactive; negative
- mutagenic call (Test System: AMES SALMONELLA TYPHIMURIUM, Strain/Indicator: TA98, Metabolic Activation: S-9, Method: PREINCUBATION): inactive; negative
- mutagenic call [7]: inactive; negative
- mutagenic call (Test System: AMES SALMONELLA TYPHIMURIUM, Strain/Indicator: TA100, Metabolic Activation: S-9, Method: PREINCUBATION): inactive; negative
- mutagenic call [10]: inactive; negative
- mutagenic call (Test System: AMES SALMONELLA TYPHIMURIUM, Strain/Indicator: TA1535, Metabolic Activation: S-9, Method: PREINCUBATION): inactive; negative
- mutagenic call [13]: inactive; negative
- mutagenic call (Test System: AMES SALMONELLA TYPHIMURIUM, Strain/Indicator: TA1537, Metabolic Activation: S-9, Method: PREINCUBATION): inactive; negative
- mutagenic call (Test System: E. COLI, Strain/Indicator: WP2 UVRA, Metabolic Activation: NONE, Method: PREINCUBATION): inactive; negative
- mutagenic call (Test System: E. COLI, Strain/Indicator: WP2 UVRA, Metabolic Activation: S-9, Method: PREINCUBATION): inactive; negative

Structure (SMILES): C[As](C)O
- mutagenic call (End Point: IN VITRO CHROMOSOMAL ABERRATIONS, Test System: CHINESE HAMSTER V79 CELLS, Metabolic Activation: NONE): active; positive (structural and ploidy changes)

Structure (SMILES): CCN=NC(C)(C)OO
- mutagenic call [15]: inactive; negative
- mutagenic call (Test System: E. COLI, Strain/Indicator: WP2 (HCR-), Metabolic Activation: NONE): active; positive

Structure (SMILES): CCOC(=O)OCC
- mutagenic call [3]: inactive; negative
- mutagenic call [4]: inactive; negative
- mutagenic call [5]: inactive; negative
- mutagenic call [6]: inactive; negative
- mutagenic call [7]: inactive; negative
- mutagenic call [8]: inactive; negative
- mutagenic call [9]: inactive; negative
- mutagenic call [10]: inactive; negative
- mutagenic call [11]: inactive; negative
- mutagenic call [12]: inactive; negative
- mutagenic call [13]: inactive; negative
- mutagenic call [14]: inactive; negative

Structure (SMILES): O=[N+]([O-])c1cccc2c1-c1cccc3c([N+](=O)[O-])ccc-2c13
- mutagenic call (Test System: AMES SALMONELLA TYPHIMURIUM, Strain/Indicator: TA97, Metabolic Activation: NONE): active; positive
- mutagenic call (Test System: AMES SALMONELLA TYPHIMURIUM, Strain/Indicator: TA98(1,8-DNP6), Metabolic Activation: NONE): active; positive
- mutagenic call (Test System: AMES SALMONELLA TYPHIMURIUM, Strain/Indicator: TA98(NR), Metabolic Activation: NONE): active; positive
- mutagenic call (Test System: AMES SALMONELLA TYPHIMURIUM, Strain/Indicator: TA98, Metabolic Activation: NONE): active; positive
- mutagenic call (Test System: AMES SALMONELLA TYPHIMURIUM, Strain/Indicator: TA100, Metabolic Activation: NONE): active; positive
- mutagenic call [15]: inactive; negative
- mutagenic call (Test System: AMES SALMONELLA TYPHIMURIUM, Strain/Indicator: TA1537, Metabolic Activation: NONE): active; positive
- mutagenic call (Test System: AMES SALMONELLA TYPHIMURIUM, Strain/Indicator: TA1538, Metabolic Activation: NONE): active; positive
- mutagenic call (Test System: AMES SALMONELLA TYPHIMURIUM, Strain/Indicator: TA1978, Metabolic Activation: NONE): active; positive
